Experimental data reported in patent US20120264685A1 (priority 2009, published 2012).
Where a SMILES comes first, the peptide text is derived from it. [ ]: non-standard residue; d: D form. ξ: configuration not given here. ξαMeBip(2'-Et,4'-OMe) = CCc1cc(OC)ccc1-c1ccc(CC(C)(N)C(=O)O)cc1; ξαMePhe(2,6-F2) = CC(N)(Cc1c(F)cccc1F)C(=O)O; ξhhPhe = NC(CCCc1ccccc1)C(=O)O; ξαMeP = CC1(C(=O)O)CCCN1; ξαMeS = CC(N)(CO)C(=O)O; Aib = CC(C)(N)C(=O)O

Columns and labels:
[1] = test system: male C57BL/6J mice; experiment: Acute single dose 120-min time-course experiment, in vivo glucose reduction; parameters: unit not given here; details: i.p, n = 8, Mean ± SEM
Protocol: Acute single dose 120-min time-course experiments were carried out in male C57BL/6J or db/db mice, age 8-12 weeks, bred in-house. The animals were housed in groups of 6 animals per cage, for a week, in order to habituate them to vivarium conditions (25+4° C., 60-65% relative humidity, 12:12 h light: dark cycle, with lights on at 7.30 am). All the animal experiments were carried out according to the internationally valid guidelines following approval by the ‘Zydus Research Center animal ethical committee’.
[…] On the day of experiment, food was withdrawn from all the cages, water was given ad-libitum and were kept for overnight fasting. Vehicle (normal saline)/test/standard compounds were administered intraperitoneally (i.p.) or orally, on a body weight basis. Soon after the 0 min. blood collection from each animal, the subsequent blood collections were done at 30, 60 and 120 or upto 240 min., via retro-orbital route, under light ether anesthesia (Chen, D., et al., Diabetes Obesity Metabolism, 2005, 7, 307. Kim, J. G. et al., Diabetes, 2003, 52, 751).
The blood samples were centrifuged and the separated serum was immediately subjected for the glucose estimation. The serum for insulin estimation was stored at −70° C. until used for the insulin estimation. The glucose estimation was carried out with DPEC-GOD/POD method (Ranbaxy Fine Chemicals Limited, Diagnostic division, India), using Spectramax-190, in 96-microwell plate reader (Molecular devices Corporation, Sunnyvale, Calif.). […] The AUC and BCAUC obtained from graphs were analyzed for one way ANOVA, followed by Dunnett's post test, using Graph Pad prism software. Furthermore, the insulin estimation was carried out using rat/mouse insulin ELISA kit (Linco research, Missouri USA).

[2] = biological target: DPP IV enzyme (Homo sapiens, UniProt P27487); experiment: Stability against DPP IV enzyme; assay type: in vitro ADME; details: 2 μM, 37° C.; for half-life: read-out: half-life (t1/2) with DPP-IV enzyme
Protocol: (§1) Different peptidomimetics (final concentration 2 μM) were incubated with either DPP IV (1:25 mU) or pooled human plasma (7.5 μL) or simulated gastric fluid (pH 1.5; composition HCl, NaCl and Pepsin) or simulated intestinal fluid (pH 7.5) or human liver microsomes, for 0, 2, 4, 6, 12 and 24 h (37° C.; 50 mM triethanolamine-HCl buffer; pH 7.8). […] Reactions were terminated by the addition of TFA/H2O ([…], 10% (v/v)). The reaction products were then applied to a Vydac C18 analytical column (4.6×250-mm) and the major degradation fragment separated from intact peptidomimetic. The column was equilibrated with TFA/H20, at a flow rate of 1 mL/min. Using 0.1% (v/v) TFA in 70% acetonitrile/H2O, the concentration of acetonitrile in the eluting solvent was raised from 0% to 28% over 10 min and from 28% to 42% over 30 min. The absorbance was monitored at 206 nm using UV detector and peaks were collected manually prior to ESI-MS analysis. Area under the curve was measured for test peptidomimetics and their metabolites and percentage degradation were calculated at each time point over a period of 24 h.

[3] = Stability in simulated intestinal fluid; assay type: in vitro ADME; details: 2 μM, 37° C.; for % degradation in 24 h when incubated with simulated intestinal fluid: pH 7.5, 24 h
Protocol: (§2) Reactions were terminated by the addition of TFA/H2O ([…], 10% (v/v)). […] The column was equilibrated with TFA/H20, at a flow rate of 1 mL/min. […] The absorbance was monitored at 206 nm using UV detector and peaks were collected manually prior to ESI-MS analysis.

[4] = Stability in simulated gastric fluid; assay type: in vitro ADME; details: 2 μM, 37° C.; for % degradation in 24 h when incubated with simulated gastric fluid: pH 1.5, 24 h
Protocol: as §2

[5] = Stability in liver microsomes; assay type: in vitro ADME, human; details: 2 μM, 37° C.; for half-life: human, microsomes, read-out: half-life (t1/2) in liver microsomes
Protocol: as §2

[6] = test system: RIN5F (Rat Insulinoma) cells; experiment: In vitro glucose-dependent insulin secretion (RIN5F cell assay); assay type: cell-based; details: 16.7-mM glucose load, n = 3, mean ± S.D.
Protocol: RIN5F (Rat Insulinoma) cells were cultured in RPMI 1640 medium supplemented with sodium pyruvate (1 mM) HEPES and Glucose (4.5 g/L) in a humidified incubator (5% CO2), at 37° C. After trypsinization, RIN5F cells were seeded at a concentration of 0.2×10^6 cells per well, in 12 well plates. The cells were grown overnight to 80% confluence and insulin secretion experiments were performed as follows (Montrose-Rafizadeh C., et al., Mol. Cell. Endo. 1997, 130, 109.; Wang, X., et al., Endocrinology 2001, 5, 1820).
The cells were washed once with PBS solution followed by 40 min. incubation in fresh Krebs-Ringer Balanced Buffer containing NaCl (115 mmol/L), KCl (4.7 mmol/L), CaCl2 (1.28 mmol/L), MgSO4.7H2O (1.2 mmol/L), KH2PO4 (1.2 mmol/L), NaHCO3 (10 mmol/L) and HEPES (25 mmol/L), containing Glucose (1.1 mM) and B.S.A (0.5%), pH 7.4. The buffer was replaced after 40 min. and the cells were incubated (37° C.) with the test peptidomimetics, at different concentration, for 30 min., both in the presence (16.7 mM) and absence (0 mM) of glucose load. The supernatant was collected and the insulin amount was measured by ultra sensitive Rat insulin ELISA kit (Crystal Chem, IL). The protein was estimated in the supernatant using Bicinchoninic Acid kit, according to the manufacturer's protocol (Sigma Aldrich, MO). The total insulin content obtained in Pico-gram (pg) was divided with the total protein (μg) in order to normalize for differences in cell density between wells.

[7] = Stability in human plasma; assay type: in vitro ADME; details: 2 μM, 37° C.; for half-life: human, plasma, read-out: half-life (t1/2) in human plasma
Protocol: as §1

Chain of DPP IV enzyme (P27487 whole entry, species assumed, the tested form may be a part): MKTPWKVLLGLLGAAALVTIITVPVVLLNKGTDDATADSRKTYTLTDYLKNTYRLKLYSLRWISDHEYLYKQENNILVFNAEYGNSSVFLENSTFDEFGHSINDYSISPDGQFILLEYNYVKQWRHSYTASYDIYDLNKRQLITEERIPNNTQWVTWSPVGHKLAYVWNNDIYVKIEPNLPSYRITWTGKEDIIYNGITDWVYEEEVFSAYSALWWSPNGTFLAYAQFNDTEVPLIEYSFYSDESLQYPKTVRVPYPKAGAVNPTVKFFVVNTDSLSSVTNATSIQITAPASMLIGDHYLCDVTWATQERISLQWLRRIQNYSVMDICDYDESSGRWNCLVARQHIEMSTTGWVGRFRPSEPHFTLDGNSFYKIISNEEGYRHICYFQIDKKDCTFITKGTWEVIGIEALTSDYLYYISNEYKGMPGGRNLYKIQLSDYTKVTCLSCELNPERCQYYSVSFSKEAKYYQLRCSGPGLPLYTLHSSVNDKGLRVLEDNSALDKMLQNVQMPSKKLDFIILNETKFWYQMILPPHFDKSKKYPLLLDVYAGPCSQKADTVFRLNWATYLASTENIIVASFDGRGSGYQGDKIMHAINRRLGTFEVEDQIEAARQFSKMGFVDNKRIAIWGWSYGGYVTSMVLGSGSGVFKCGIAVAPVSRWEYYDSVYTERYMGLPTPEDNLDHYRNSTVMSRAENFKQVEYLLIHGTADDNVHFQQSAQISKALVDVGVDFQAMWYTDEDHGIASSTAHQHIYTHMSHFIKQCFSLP

With `CCc1cc(OC)ccc1-c1ccc(CC(C)(NC(=O)C(C)(CC(=O)O)NC(=O)[C@H](CO)NC(=O)[C@@H](NC(=O)C(C)(Cc2c(F)cccc2F)NC(=O)[C@@H](NC(=O)CNC(=O)[C@H](CCC(N)=O)NC(=O)C(C)(C)NC(=O)[C@H](Cc2c[nH]cn2)NC(=O)[C@@H](N)C(C)C)[C@@H](C)O)[C@@H](C)O)C(=O)NC(C)(CCCc2ccccc2)C(N)=O)cc1` (single isomer, unassigned) [Seq. ID. No. 199, VH-Aib-QGT-(αMe-2,6-diFPhe)-TS-(αMe-Asp)-(αMe-Bip(OMe))-(αMe-APPA)] the “blood glucose level (in vivo glucose reduction)” value ([1]; 30 nM/kg, 0 min) was 180 ± 1.2, the “blood glucose level (in vivo glucose reduction)” value ([1]; 30 nM/kg, 30 min) was 116 ± 3.2 and the “blood glucose level (in vivo glucose reduction)” value ([1]; 30 nM/kg, 60 min) was 116 ± 3.1. For the same compound, the “blood glucose level (in vivo glucose reduction)” value ([1]; 30 nM/kg, 120 min) was 118 ± 1.8.

In the case of `CCc1cc(OC)ccc1-c1ccc(CC(C)(NC(=O)[C@H](CC(=O)O)NC(=O)C(C)(CO)NC(=O)[C@@H](NC(=O)C(C)(Cc2c(F)cccc2F)NC(=O)[C@@H](NC(=O)CNC(=O)[C@H](CCC(=O)O)NC(=O)C2(C)CCCN2C(=O)[C@H](Cc2c[nH]cn2)NC(=O)[C@@H](N)C(C)C)[C@@H](C)O)[C@@H](C)O)C(=O)NC(CCCc2ccccc2)C(N)=O)cc1` (stereo partly drawn) [Seq. ID. No. 56, VH-(αMe-Pro)-EGT-(αMe-2,6-diFPhe)-T-(αMe-Ser)-D-(αMe-Bip(OMe))-(APPA)] (H-VH[ξαMeP]EGT[ξαMePhe(2,6-F2)]T[ξαMeS]D[ξαMeBip(2'-Et,4'-OMe)][ξhhPhe]-NH2), the “blood glucose level (in vivo glucose reduction)” value ([1]; 5 nM/kg, 0 min) is reported as 179 ± 5.0, the “blood glucose level (in vivo glucose reduction)” value ([1]; 5 nM/kg, 30 min) is reported as 120 ± 3.6 and the “blood glucose level (in vivo glucose reduction)” value ([1]; 5 nM/kg, 60 min) is reported as 129 ± 2.0. For the same compound, the “blood glucose level (in vivo glucose reduction)” value ([1]; 5 nM/kg, 120 min) was 148 ± 1.7.

With `CCc1cc(OC)ccc1-c1ccc(CC(C)(NC(=O)[C@H](CC(=O)O)NC(=O)[C@H](CO)NC(=O)[C@@H](NC(=O)C(C)(Cc2c(F)cccc2F)NC(=O)[C@@H](NC(=O)CNC(=O)[C@H](CCC(N)=O)NC(=O)C2(C)CCCN2C(=O)[C@H](Cc2c[nH]cn2)NC(=O)[C@@H](N)C(C)C)[C@@H](C)O)[C@@H](C)O)C(=O)NC(CCCc2ccccc2)C(N)=O)cc1` (some centres unmarked) [compound 28] (H-VH[ξαMeP]QGT[ξαMePhe(2,6-F2)]TSD[ξαMeBip(2'-Et,4'-OMe)][ξhhPhe]-NH2) the “% degradation in 24 h when incubated with DPP-IV enzyme” value (“% degradation … with DPP-IV enzyme” for short) [2] was 70%, the half-life [2] was 9 h and the “half-life (t1/2) in simulated intestinal fluid” value ([3]; pH 7.5) was “(6) h”. The “% degradation in 24 h when incubated with simulated intestinal fluid” value (“% degradation … with simulated intestinal fluid” for short) [3] was 40%, the “half-life (t1/2) in simulated gastric fluid” value ([4]; pH 1.5) was “(8) h” and the “% degradation in 24 h when incubated with simulated gastric fluid” value (from here on “% degradation … with simulated gastric fluid”) [4] was 14%. For the same compound, the “% degradation in 24 h when incubated with liver microsomes” value (shortened to “% degradation … with liver microsomes”) [5] was 78%, the half-life [5] was 1 h and the “Insulin secretion” value ([6]; 0.1 nM test compd.) was 11.8 ± 0.50 pg/µg/h. For the same compound, the “Insulin secretion” value ([6]; 1 nM test compd.) was 14.9 ± 0.11 pg/µg/h, the “Insulin secretion” value ([6]; 10 nM test compd.) was 27.9 ± 0.31 pg/µg/h and the “% degradation in 24 h when incubated with human plasma” value (“% degradation … with human plasma” for short) [7] was 71%. It also gave a half-life [7] of 8 h.

With `CCc1cc(OC)ccc1-c1ccc(CC(C)(NC(=O)[C@H](CC(=O)O)NC(=O)[C@H](CO)NC(=O)[C@@H](NC(=O)C(C)(Cc2c(F)cccc2F)NC(=O)[C@@H](NC(=O)CNC(=O)[C@H](CCC(=O)O)NC(=O)C(C)(C)NC(=O)[C@H](Cc2c[nH]cn2)NC(=O)[C@@H](N)C(C)C)[C@@H](C)O)[C@@H](C)O)C(=O)NC(CCCc2ccccc2)C(N)=O)cc1` (some centres unmarked) [compound 31] (H-VH[Aib]EGT[ξαMePhe(2,6-F2)]TSD[ξαMeBip(2'-Et,4'-OMe)][ξhhPhe]-NH2) the “% degradation … with DPP-IV enzyme” value [2] was 86%, the half-life [2] was 9 h and the “half-life (t1/2) in simulated intestinal fluid” value ([3]; pH 7.5) was “(6) h”. The “% degradation … with simulated intestinal fluid” value [3] was 41%, the “half-life (t1/2) in simulated gastric fluid” value ([4]; pH 1.5) was “(8) h” and the “% degradation … with simulated gastric fluid” value [4] was 15%. For the same compound, the “% degradation … with liver microsomes” value [5] was 77%, the half-life [5] was 1 h and the “Insulin secretion” value ([6]; 0.1 nM test compd.) was 12.7 ± 0.21 pg/µg/h. The “Insulin secretion” value ([6]; 1 nM test compd.) was 15.8 ± 0.33 pg/µg/h, the “Insulin secretion” value ([6]; 10 nM test compd.) was 29.3 ± 0.19 pg/µg/h and the “% degradation … with human plasma” value [7] was 70%. The half-life [7] was 8 h.

In the case of `CCc1cc(OC)ccc1-c1ccc(CC(C)(NC(=O)[C@H](CC(=O)O)NC(=O)C(C)(CO)NC(=O)[C@@H](NC(=O)[C@H](Cc2ccccc2)NC(=O)[C@@H](NC(=O)CNC(=O)[C@H](CCC(=O)O)NC(=O)[C@H](C)NC(=O)[C@H](Cc2c[nH]cn2)NC(=O)[C@@H](N)C(C)C)[C@@H](C)O)[C@@H](C)O)C(=O)NC(CCCc2ccccc2)C(N)=O)cc1` (some centres unmarked) [compound 38] (H-VHAEGTFT[ξαMeS]D[ξαMeBip(2'-Et,4'-OMe)][ξhhPhe]-NH2), the “% degradation … with DPP-IV enzyme” value [2] is reported as 00%, the half-life [2] is reported as greater than 24 h and the “% degradation … with simulated intestinal fluid” value [3] is reported as 00%. The half-life ([3]; simulated gi fluid, pH 7.5, read-out: half-life (t1/2) in simulated intestinal fluid) was greater than 24 h, the “% degradation … with simulated gastric fluid” value [4] was 00% and the half-life ([4]; simulated gi fluid, pH 1.5, read-out: half-life (t1/2) in simulated gastric fluid) was greater than 24 h. For the same compound, the “half-life (t1/2) in liver microsomes” value [5] was “(5) h”, the “% degradation … with liver microsomes” value [5] was 31% and the “Insulin secretion” value ([6]; 0.1 nM test compd.) was 13.1 ± 0.11 pg/µg/h. The “Insulin secretion” value ([6]; 1 nM test compd.) was 14.9 ± 0.17 pg/µg/h, the “Insulin secretion” value ([6]; 10 nM test compd.) was 28.8 ± 0.44 pg/µg/h and the “% degradation … with human plasma” value [7] was 00%. For the same compound, the half-life [7] was greater than 24 h.
